Source: PubChem BioAssay AID1919010 (Molecular Pharmacology Branch, DTP, NCI, 2023)
Several values for one entry are separate records, joined by “and”; a condition that tells them apart may be missing. Equal values may be shown once.

Test system: Hs578T complex spheroid growth, percent test/control
Assay: Anticancer human tumor Hs578T cell line growth inhibition [AhR];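 also: luminescent viability signal as a proxy for spheroid growth; spheroids exposed to agents for one week after three days of growth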
Settings: for viability, T/C: stronger effect = lower value
Outline: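 Complex tumor spheroids co-cultured with HUVEC and human MSC stroma; AhR antagonists tested in combination with standard-of-care and investigational agents. Top concentration at or near clinical Cmax (else 10 microM), half-log dilutions; growth expressed as percent test/control.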

[1] = curve of first compound, second compound 0.1 µM
[2] = curve of first compound, second compound 0.316 µM
[3] = curve of first compound, second compound 1 µM
[4] = curve of first compound, second compound 3.16 µM
[5] = curve of first compound, second compound 10 µM
[6] = second compound 0.1 µM, first compound 0.0316 µM
[7] = second compound 0.1 µM, first compound 0.1 µM
[8] = second compound 0.316 µM, first compound 0.0316 µM
[9] = second compound 0.316 µM, first compound 0.1 µM
[10] = second compound 1 µM, first compound 0.0316 µM
[11] = second compound 1 µM, first compound 0.1 µM
[12] = second compound 3.16 µM, first compound 0.0316 µM
[13] = second compound 3.16 µM, first compound 0.1 µM
[14] = second compound 10 µM, first compound 0.0316 µM
[15] = second compound 10 µM, first compound 0.1 µM

Q: What does the source list for `Nc1ccn(C2OC(CO)C(O)C2(F)F)c(=O)n1` (configuration not stated) + Cc1ccccc1N=Nc1ccc(NC(=O)c2ccnn2C)c(C)c1?
A: IC50 [1]: 4.31 µM; IC50 [2]: 3.74 µM; IC50 [3]: > 10 µM; IC50 [4]: < 0.0316 µM; IC50 [5]: < 0.0316 µM; viability, T/C [6]: 55.6%; viability, T/C [7]: 48.1%; viability, T/C (second compound 0.1 µM, first compound 0.316 µM): 52.5%; viability, T/C (second compound 0.1 µM, first compound 1 µM): 49.2%; viability, T/C (second compound 0.1 µM, first compound 3.16 µM): 54%; viability, T/C (second compound 0.1 µM, first compound 10 µM): 47.9%; viability, T/C [8]: 54%; viability, T/C [9]: 44.9%; viability, T/C (second compound 0.316 µM, first compound 0.316 µM): 53.9%; viability, T/C (second compound 0.316 µM, first compound 1 µM): 49.8%; viability, T/C (second compound 0.316 µM, first compound 3.16 µM): 49.9%; viability, T/C (second compound 0.316 µM, first compound 10 µM): 50%; viability, T/C [10]: 61%; viability, T/C [11]: 52%; viability, T/C (second compound 1 µM, first compound 0.316 µM): 49.1%; viability, T/C (second compound 1 µM, first compound 1 µM): 46.9%; viability, T/C (second compound 1 µM, first compound 3.16 µM): 48.1%; viability, T/C (second compound 1 µM, first compound 10 µM): 56.8%; viability, T/C [12]: 48.7%; viability, T/C [13]: 47.3%; viability, T/C (second compound 3.16 µM, first compound 0.316 µM): 47.4%; viability, T/C (second compound 3.16 µM, first compound 1 µM): 47.9%; viability, T/C (second compound 3.16 µM, first compound 3.16 µM): 45.9%; viability, T/C (second compound 3.16 µM, first compound 10 µM): 44.6%; viability, T/C [14]: 45.1%; viability, T/C [15]: 46.1%; viability, T/C (second compound 10 µM, first compound 0.316 µM): 35.6%; viability, T/C (second compound 10 µM, first compound 1 µM): 36.2%; viability, T/C (second compound 10 µM, first compound 3.16 µM): 37%; viability, T/C (second compound 10 µM, first compound 10 µM): 41.4%

Q: Which IC50 [1] does the source give for `CC[C@@]1(O)C(=O)OCc2c1cc1n(c2=O)Cc2cc3c(CN(C)C)c(O)ccc3nc2-1` + CC(CO)NC(=O)c1cc(-c2ccc(Cl)cc2)nn(-c2cnn(C)c2)c1=O here?
A: > 0.1 µM

Q: What about the IC50 [2] of the same compound?
A: > 0.1 µM

Q: And the IC50 [3]?
A: > 0.1 µM

Q: And the IC50 [4]?
A: > 0.1 µM

Q: What about the IC50 [5] of the same compound?
A: > 0.1 µM

Q: What about the viability, T/C (second compound 0.1 µM, first compound 0.000316 µM) of the same compound?
A: 120%

Q: What about the viability, T/C (second compound 0.1 µM, first compound 0.001 µM) of the same compound?
A: 115%

Q: And the viability, T/C (second compound 0.1 µM, first compound 0.00316 µM)?
A: 114%

Q: And the viability, T/C (second compound 0.1 µM, first compound 0.01 µM)?
A: 103%

Q: What about the viability, T/C [6] of the same compound?
A: 83.9%

Q: What about the viability, T/C [7] of the same compound?
A: 82%

Q: And the viability, T/C (second compound 0.316 µM, first compound 0.000316 µM)?
A: 112%

Q: And the viability, T/C (second compound 0.316 µM, first compound 0.001 µM)?
A: 110%

Q: And the viability, T/C (second compound 0.316 µM, first compound 0.00316 µM)?
A: 115%

Q: What about the viability, T/C (second compound 0.316 µM, first compound 0.01 µM) of the same compound?
A: 98.9%

Q: What about the viability, T/C [8] of the same compound?
A: 89.6%

Q: What about the viability, T/C [9] of the same compound?
A: 84%

Q: What about the viability, T/C (second compound 1 µM, first compound 0.000316 µM) of the same compound?
A: 126%

Q: And the viability, T/C (second compound 1 µM, first compound 0.001 µM)?
A: 123%

Q: And the viability, T/C (second compound 1 µM, first compound 0.00316 µM)?
A: 120%

Q: And the viability, T/C (second compound 1 µM, first compound 0.01 µM)?
A: 109%

Q: And the viability, T/C [10]?
A: 91.4%

Q: And the viability, T/C [11]?
A: 103%

Q: What about the viability, T/C (second compound 3.16 µM, first compound 0.000316 µM) of the same compound?
A: 115%

Q: And the viability, T/C (second compound 3.16 µM, first compound 0.001 µM)?
A: 118%

Q: What about the viability, T/C (second compound 3.16 µM, first compound 0.00316 µM) of the same compound?
A: 132%

Q: What about the viability, T/C (second compound 3.16 µM, first compound 0.01 µM) of the same compound?
A: 93.8%

Q: What about the viability, T/C [12] of the same compound?
A: 82.9%

Q: What about the viability, T/C [13] of the same compound?
A: 86.8%

Q: And the viability, T/C (second compound 10 µM, first compound 0.000316 µM)?
A: 110%

Q: What about the viability, T/C (second compound 10 µM, first compound 0.001 µM) of the same compound?
A: 117%

Q: What about the viability, T/C (second compound 10 µM, first compound 0.00316 µM) of the same compound?
A: 110%

Q: What about the viability, T/C (second compound 10 µM, first compound 0.01 µM) of the same compound?
A: 103%

Q: What about the viability, T/C [14] of the same compound?
A: 84.5%

Q: And the viability, T/C [15]?
A: 83.7%

Q: Which results are given for `COc1ccc([C@@H](O)c2cc(-c3ncnc4cc(N5CCOCC5)ccc34)c(F)cc2Cl)nn1`?
A: viability, T/C (compound 0.0316 µM): 98.8% and 109% and 95.3%; viability, T/C (compound 0.1 µM): 106% and 104% and 89.5%; viability, T/C (compound 0.316 µM): 90.8% and 87.6% and 99.6%; viability, T/C (compound 1 µM): 90.1% and 71.2% and 78.9%; viability, T/C (compound 3.16 µM): 57.8% and 44.8% and 53.4%; viability, T/C (compound 10 µM): 35.3% and 31.1% and 33.9%; IC50 (curve of compound): 4.83 µM and 2.64 µM and 3.67 µM
